US20080194574A1, “Pyrazine Derivatives As Effective Compounds Against Infectious Diseases” (AXXIMA PHARMACEUTICALS AG, priority 2003, published 2008)
pIC50: −log10 of the molar value.

Each compound was assayed against T1, viral kinase pUL-97 (Human cytomegalovirus, UniProt P16788) (assay: UL97 kinase assay on Immobilon plate). Details: inhibition of UL 97 kinase activity; class by IC50 / % inhibition at 10 μM or 100 μM; read-out: Activity Class [A, B, C].
T1 construct: The pUL-97 gene was cloned into a baculovirus vector; GST (glutathione S-transferase) (N); made in house; host or cells: Sf9 insect cells, baculovirus
T1 sequence (P16788 whole entry): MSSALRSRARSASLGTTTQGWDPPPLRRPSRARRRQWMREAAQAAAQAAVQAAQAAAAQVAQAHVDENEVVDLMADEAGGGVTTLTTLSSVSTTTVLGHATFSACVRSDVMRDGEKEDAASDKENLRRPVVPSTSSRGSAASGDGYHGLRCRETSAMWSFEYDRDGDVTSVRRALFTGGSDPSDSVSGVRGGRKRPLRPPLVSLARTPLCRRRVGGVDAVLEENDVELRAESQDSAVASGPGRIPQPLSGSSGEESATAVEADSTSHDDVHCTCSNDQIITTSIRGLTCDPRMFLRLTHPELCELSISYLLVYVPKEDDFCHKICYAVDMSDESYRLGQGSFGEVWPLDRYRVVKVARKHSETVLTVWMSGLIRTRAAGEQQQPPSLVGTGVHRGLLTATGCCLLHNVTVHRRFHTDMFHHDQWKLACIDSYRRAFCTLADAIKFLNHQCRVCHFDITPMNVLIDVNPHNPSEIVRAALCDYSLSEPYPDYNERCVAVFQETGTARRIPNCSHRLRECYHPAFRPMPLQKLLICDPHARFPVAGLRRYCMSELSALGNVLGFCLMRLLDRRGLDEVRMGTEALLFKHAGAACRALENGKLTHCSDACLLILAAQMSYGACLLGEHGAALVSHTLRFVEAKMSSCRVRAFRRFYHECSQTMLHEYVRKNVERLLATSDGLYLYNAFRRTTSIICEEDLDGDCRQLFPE
Format: biochemical
Outline: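 Compound was titrated into a radiometric reaction of Sf9-expressed GST-UL97 kinase, incubated 1 h at 30 °C in Tris-HCl pH 7.5/MnCl2/DTT buffer before EDTA stop. MBP substrate and ATP (3 μM in the added assay buffer) were supplied with γ-[33P]ATP. Labelled product bound to Immobilon filter was washed and counted by scintillation.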
`CC(=O)c1cccc(-c2cncc(N3CCN(c4cnccn4)CC3)n2)c1` [compound 312, 1-[3-(2′,3′,5′,6′-Tetrahydro-[2,1′;4′,2″]terpyrazin-6-yl)-phenyl]-ethanone] showed a pIC50 of 5.00 to 6.00.
In the case of `COc1ccc(N2CCN(c3cncc(-c4ccc(C(C)(C)C)cc4)n3)CC2)cc1OC` [compound 263, 6′-(4-tert-Butyl-phenyl)-4-(3,4-dimethoxy-phenyl)-3,4,5,6-tetrahydro-2H-[1,2′]bipyrazinyl], the pIC50 was 4.00 to 5.00.
With `COc1ccc(N2CCN(c3cncc(-c4ccc(C)cc4)n3)CC2)cc1OC` [compound 224, 4-(3,4-Dimethoxy-phenyl)-6′-p-tolyl-3,4,5,6-tetrahydro-2H-[1,2′]bipyrazinyl] the pIC50 was 5.00 to 6.00.
`COc1ccccc1N1CCN(c2cncc(-c3csc4ccccc34)n2)CC1` [compound 243, 6′-Benzo[b]thiophen-3-yl-4-(2-methoxy-phenyl)-3,4,5,6-tetrahydro-2H-[1,2′]bipyrazinyl] showed a pIC50 of 4.00 to 5.00.
Compound `CC(=O)c1ccc(-c2cncc(N3CCN(c4cccc(C)c4C)CC3)n2)cc1` [compound 298, 1-{4-[4-(2,3-Dimethyl-phenyl)-3,4,5,6-tetrahydro-2H-[1,2′]bipyrazinyl-6′-yl]-phenyl}-ethanone] has a pIC50 of 4.00 to 5.00.
`CC(C)(C)c1ccc(-c2cncc(N3CCN(c4cnccn4)CC3)n2)cc1` [compound 333, 6-(4-tert-Butyl-phenyl)-2′,3′,5′,6′-tetrahydro-[2,1′;4′,2″]terpyrazine] showed a pIC50 of 4.00 to 5.00.
`c1ccc(C2CCN(c3cncc(-c4cccc5ccccc45)n3)CC2)cc1` [compound 318, 2-Naphthalen-1-yl-6-(4-phenyl-piperidin-1-yl)-pyrazine] was tested, and the pIC50 was 4.00 to 5.00.
Work on `Cc1cccc(N2CCN(c3cncc(-c4ccc(C(N)=O)cc4)n3)CC2C)c1` (stereo not shown) [compound 299, 4-(3-Methyl-4-m-tolyl-3,4,5,6-tetrahydro-2H-[1,2′]bipyrazinyl-6′-yl)-benzamide] yielded a pIC50 of 5.00 to 6.00.
Work on `CCOc1ccc(-c2cncc(N3CCN(c4ccc(C(C)=O)cc4)CC3)n2)cc1` [compound 207, 1-{4-[6′-(4-Ethoxy-phenyl)-2,3,5,6-tetrahydro-[1,2′]bipyrazinyl-4-yl]-phenyl}-ethanone] yielded a pIC50 of 4.00 to 5.00.
`COc1ccc(N2CCN(c3cncc(-c4ccsc4)n3)CC2)cc1OC` [compound 261, 4-(3,4-Dimethoxy-phenyl)-6′-thiophen-3-yl-3,4,5,6-tetrahydro-2H-[1,2′]bipyrazinyl] was tested, and the pIC50 was 5.00 to 6.00.
With `CCOc1ccc(-c2cncc(N3CCN(c4ccc(F)cc4)CC3)n2)cc1` [compound 271, 6′-(4-Ethoxy-phenyl)-4-(4-fluoro-phenyl)-3,4,5,6-tetrahydro-2H-[1,2′]bipyrazinyl] the pIC50 was 4.00 to 5.00.
`FC(F)(F)c1cccc(N2CCN(c3cncc(-c4ccoc4)n3)CC2)c1` [compound 255, 6′-Furan-3-yl-4-(3-trifluoromethyl-phenyl)-3,4,5,6-tetrahydro-2H-[1,2′]bipyrazinyl] gave a pIC50 of 4.00 to 5.00.
In the case of `Cc1ccc(N2CCN(c3cncc(-c4csc5ccccc45)n3)CC2)cc1C` [compound 317, 6′-Benzo[b]thiophen-3-yl-4-(3,4-dimethyl-phenyl)-3,4,5,6-tetrahydro-2H-[1,2′]bipyrazinyl], the pIC50 was 4.00 to 5.00.
`CC(C)(C)c1ccc(-c2cncc(N3CCN(c4cccc(C(F)(F)F)c4)CC3)n2)cc1` [compound 253, 6′-(4-tert-Butyl-phenyl)-4-(3-trifluoromethyl-phenyl)-3,4,5,6-tetrahydro-2H-[1,2′]bipyrazinyl] showed a pIC50 of 4.00 to 5.00.
With `Fc1ccc(-c2cncc(N3CCN(c4ccccn4)CC3)n2)cc1` [compound 305, 6′-(4-Fluoro-phenyl)-4-pyridin-2-yl-3,4,5,6-tetrahydro-2H-[1,2′]bipyrazinyl] the pIC50 was 5.00 to 6.00.
`COc1ccc(N2CCN(c3cncc(-c4ccc(C(F)(F)F)cc4)n3)CC2)cc1` [compound 355, 4-(4-Methoxy-phenyl)-6′-(4-trifluoromethyl-phenyl)-3,4,5,6-tetrahydro-2H-[1,2′]bipyrazinyl] showed a pIC50 of 5.00 to 6.00.
With `Cc1ccc(N2CCN(c3cncc(-c4ccc5ccccc5c4)n3)CC2)cc1C` [compound 335, 4-(3,4-Dimethyl-phenyl)-6′-naphthalen-2-yl-3,4,5,6-tetrahydro-2H-[1,2′]bipyrazinyl] the pIC50 was 5.00 to 6.00.
In the case of `Cc1ccc(-c2cncc(N3CCN(c4ccc(F)cc4)CC3)n2)cc1` [compound 233, 4-(4-Fluoro-phenyl)-6′-p-tolyl-3,4,5,6-tetrahydro-2H-[1,2′]bipyrazinyl], the pIC50 was 5.00 to 6.00.

Same assay, conditions: inhibition of UL 97 kinase activity; class by IC50 / % inhibition at 10 or 100 μM; read-out: Activity Class [A, B, C]
Compound `CC(=O)Nc1cccc(-c2cncc(N3CCN(c4cccc5[nH]ccc45)CC3)n2)c1` [compound 36, N-{3-[4-(1H-Indol-4-yl)-3,4,5,6-tetrahydro-2H-[1,2′]bipyrazinyl-6′-yl]-phenyl}-acetamide] has a pIC50 of 4.00 to 5.00.
`FC(F)(F)c1cccc(-c2cncc(N3CCN(c4ccncc4)CC3)n2)c1` [compound 32, 4-Pyridin-4-yl-6′-(3-trifluoromethyl-phenyl)-3,4,5,6-tetrahydro-2H-[1,2′]bipyrazinyl] gave a pIC50 greater than 6.00.
For `Fc1ccc(-c2cncc(N3CCN(c4ccncc4)CC3)n2)c(F)c1` [compound 46, 6′-(2,4-Difluoro-phenyl)-4-pyridin-4-yl-3,4,5,6-tetrahydro-2H-[1,2′]bipyrazinyl], the pIC50 was 5.00 to 6.00.
In the case of `NC(=O)c1ccc(-c2cncc(N3CCN(C(=O)c4ccco4)CC3)n2)cc1` [compound 34, 4-[4-(Furan-2-carbonyl)-3,4,5,6-tetrahydro-2H-[1,2′]bipyrazinyl-6′-yl]-benzamide], the pIC50 was greater than 6.00.
For `CC(=O)c1cccc(-c2cncc(N3CCN(c4cccc(Cl)c4)CC3)n2)c1` [compound 101, 1-{3-[4-(3-Chloro-phenyl)-3,4,5,6-tetrahydro-2H-[1,2′]bipyrazinyl-6′-yl]-phenyl}-ethanone], the pIC50 was 5.00 to 6.00.
`CC(=O)c1ccc(N2CCN(c3cncc(-c4csc5ccccc45)n3)CC2)cc1` [compound 152, 1-[4-(6′-Benzo[b]thiophen-3-yl-2,3,5,6-tetrahydro-[1,2′]bipyrazinyl-4-yl)-phenyl]-ethanone] showed a pIC50 of 5.00 to 6.00.
`FC(F)(F)c1ccc(-c2cncc(N3CCN(c4ccccc4)CC3)n2)cc1` [compound 193, 4-Phenyl-6′-(4-trifluoromethyl-phenyl)-3,4,5,6-tetrahydro-2H-[1,2′]bipyrazinyl] was tested, and the pIC50 was 5.00 to 6.00.
`Cc1ccc(N2CCN(c3cncc(-c4cc(C)cc(C)c4)n3)CC2)cc1` [compound 177, 6′-(3,5-Dimethyl-phenyl)-4-p-tolyl-3,4,5,6-tetrahydro-2H-[1,2′]bipyrazinyl] showed a pIC50 of 4.00 to 5.00.
`CC(=O)c1ccc(N2CCN(c3cncc(-c4cccc(C)c4)n3)CC2)cc1` [compound 147, 1-[4-(6′-m-Tolyl-2,3,5,6-tetrahydro-[1,2′]bipyrazinyl-4-yl)-phenyl]-ethanone] gave a pIC50 of 4.00 to 5.00.
In the case of `CC(=O)c1cccc(-c2cncc(N3CCN(c4ccccc4F)CC3)n2)c1` [compound 115, 1-{3-[4-(2-Fluoro-phenyl)-3,4,5,6-tetrahydro-2H-[1,2′]bipyrazinyl-6′-yl]-phenyl}-ethanone], the pIC50 was 5.00 to 6.00.
`c1ccc(Oc2ccc(-c3cncc(N4CCN(c5ccncc5)CC4)n3)cc2)cc1` [compound 163, 6′-(4-Phenoxy-phenyl)-4-pyridin-4-yl-3,4,5,6-tetrahydro-2H-[1,2′]bipyrazinyl] gave a pIC50 of 5.00 to 6.00.
Compound `c1cncc(-c2cncc(N3CCN(c4ccncc4)CC3)n2)c1` [compound 54, 4-Pyridin-4-yl-6′-pyridin-3-yl-3,4,5,6-tetrahydro-2H-[1,2′]bipyrazinyl] has a pIC50 of 4.00 to 5.00.
Compound `CSc1ccc(-c2cncc(N3CCN(c4ccc(C)cc4)CC3)n2)cc1` [compound 137, 6′-(4-Methylsulfanyl-phenyl)-4-p-tolyl-3,4,5,6-tetrahydro-2H-[1,2′]bipyrazinyl] has a pIC50 of 5.00 to 6.00.
Work on `c1coc(CNc2cncc(-c3cc4ccccc4o3)n2)c1` [compound 23, (6-Benzofuran-2-yl-pyrazin-2-yl)-furan-2-ylmethyl-amine] yielded a pIC50 of 4.00 to 5.00.
With `FC(F)(F)c1ccc(-c2cncc(N3CCN(c4cccc(Cl)c4)CC3)n2)cc1` [compound 184, 4-(3-Chloro-phenyl)-6′-(4-trifluoromethyl-phenyl)-3,4,5,6-tetrahydro-2H-[1,2′]bipyrazinyl] the pIC50 was 4.00 to 5.00.
With `Oc1ccc(-c2cncc(N3CCN(c4ccncc4)CC3)n2)cc1` [compound 57, 4-(4-Pyridin-4-yl-3,4,5,6-tetrahydro-2H-[1,2′]bipyrazinyl-6′-yl)-phenol] the pIC50 was 4.00 to 5.00.
`O=C(c1ccco1)N1CCN(c2cncc(-c3cccc(CO)c3)n2)CC1` [compound 58, Furan-2-yl-[6′-(3-hydroxymethyl-phenyl)-2,3,5,6-tetrahydro-[1,2′]bipyrazinyl-4-yl]-methanone] showed a pIC50 of 4.00 to 5.00.
Work on `Cc1ccc(-c2cncc(NCc3ccco3)n2)cc1C` [compound 51, [6-(3,4-Dimethyl-phenyl)-pyrazin-2-yl]-furan-2-ylmethyl-amine] yielded a pIC50 of 4.00 to 5.00.
In the case of `Fc1cc(-c2cncc(N3CCN(c4ccccc4F)CC3)n2)ccc1-c1ccccc1` [compound 128, 6′-(2-Fluoro-biphenyl-4-yl)-4-(2-fluoro-phenyl)-3,4,5,6-tetrahydro-2H-[1,2′]bipyrazinyl], the pIC50 was 4.00 to 5.00.
For `NC(=O)c1ccc(-c2cncc(NCCc3c[nH]c4ccccc34)n2)cc1` [compound 35, 4-{6-[2-(1H-Indol-3-yl)-ethylamino]-pyrazin-2-yl}-benzamide], the pIC50 was greater than 6.00.
Compound `OCc1ccc(-c2cncc(N3CCN(c4cccc5[nH]ccc45)CC3)n2)cc1` [compound 61, {4-[4-(1H-Indol-4-yl)-3,4,5,6-tetrahydro-2H-[1,2′]bipyrazinyl-6′-yl]-phenyl}-methanol] has a pIC50 of 4.00 to 5.00.
With `FC(F)(F)c1cc(-c2cncc(N3CCN(c4ccccc4)CC3)n2)cc(C(F)(F)F)c1` [compound 191, 6′-(3,5-Bis-trifluoromethyl-phenyl)-4-phenyl-3,4,5,6-tetrahydro-2H-[1,2′]bipyrazinyl] the pIC50 was 4.00 to 5.00.
